Among the data in patent publication US20080045514A1 (Cytovia, Inc., priority 2006, published 2008) are EC50 and GI50 values, retold here.

Where two headings read alike, the source gives them in different places.

Common to all, as to assay type: cell-based
Test [1] concerns human breast cancer cell line T-47D. As to the kind of experiment: Caspase cascade activation (EC50), T-47D. Particulars: T47D cells, caspase cascade activation, read-out: caspase potency (EC50) T47D. The essentials: (§1)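 Test compound (0.016–10 μM final) is incubated with cells for 48 h at 37 °C. Caspase-3-like activity is measured by 3 h room-temperature cleavage of DEVD-R110 in PIPES pH 7.2 lysis buffer, with EC50 from sigmoidal fitting of background-corrected RFU relative to control.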

Test [2] concerns human lymphoma cell line Raji. As to the kind of experiment: Caspase cascade activation (EC50), Raji. Particulars: Homo sapiens, RAJI cells, read-out: caspase potency (EC50) RAJI. The essentials: as §1
In test [3] the test system is human hepatocellular carcinoma cell line SNU398. As to the kind of experiment: Inhibition of cell proliferation (GI50), SNU398. Particulars: SNU 398 cells, 48 h, CellTiter-Glo. How it is done:
(§2) Human breast cancer cell lines T-47D, human hepatocellular carcinoma cell line SNU398, human colon carcinoma cell line HCT116, human lung cancer cell line H1299, human leukemia cell line K562, human lymphoma cell line Raji, human B cell lymphoblastoid cell line Ramos, and human Burkitt's lymphoma cell line Namalwa were grown and harvested as in Example 100. An aliquot of […] of cells (4.4×10^4 cells/mL) was added to a well of a 96-well microtiter plate containing 5 μL of a 10% DMSO in RPMI-1640 media solution containing 10 nM to 100 μM of 3-(2-chlorophenyl)-6-(3,4-methylenedioxyphenyl)-7H-[1,2,4]triazolo[3,4-b][1,3,4]thiadiazine (1 nM to 10 μM final). An aliquot of 45 μL of cells was added to a well of a 96-well microtiter plate containing 5 μL of a 10% DMSO in RPMI-1640 media solution without compound as the control sample for maximal cell proliferation (LMax). The samples were mixed by agitation and then incubated at 37° C. for 48 h in a 5% CO2-95% humidity incubator. After incubation, the samples were removed from the incubator and 25 μL of CellTiter-Glo™ reagent (Promega) was added. The samples were mixed by agitation and incubated at room temperature for 10-15 min. Plates were then read using a luminescent plate reader (Model SPECTRAfluor Plus, Tecan) to give Ltest values.
(§3) The samples were mixed by agitation and then incubated at 37° C. for 0.5 h in a 5% CO2-95% humidity incubator. After incubation, the samples were removed from the incubator and 25 μL of CellTiter-Glo™ reagent (Promega) was added. The samples were mixed by agitation and incubated at […] 10-15 min at room temperature in a 5% CO2-95% humidity incubator. Fluorescence was read as above, (LStart) defining luminescence for initial cell number used as baseline in GI50 determinations.
(§4) Calculation: GI50 (dose for 50% inhibition of cell proliferation) is the concentration where [(Ltest−LStart)/(LMax−LStart)]=0.5.
(ATP-based viability assays read luminescence as a measure of living cells.)

The test system of test [4] is human Burkitt's lymphoma cell line Namalwa. Briefly: Caspase cascade activation (EC50), Namalwa. Particulars: Homo sapiens, Burkitts lymphoma cell; Namalwa cells; caspase cascade activation; read-out: caspase potency (EC50) Namalwa. A digest of the protocol:
as §1

The test system of test [5] is human colon carcinoma cell line HCT116. As to the kind of experiment: Inhibition of cell proliferation (GI50), HCT116. Particulars: HCT 116 cells, 48 h, CellTiter-Glo. The essentials: (§5)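 Cells at 4.4×10^4 cells/mL were exposed to test compound (1 nM to 10 μM final) in RPMI-1640 with DMSO for 48 h at 37 °C, 5% CO2. Viability was read by CellTiter-Glo luminescence. GI50 is where (Ltest−LStart)/(LMax−LStart)=0.5, with LStart a 0.5 h baseline and LMax untreated cells.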

The test system is the same in test [6]. Briefly: Caspase cascade activation (EC50), HCT116. Particulars: Homo sapiens, HCT-116; HCT116 cells; caspase cascade activation; read-out: caspase potency (EC50) HCT116. A digest of the protocol:
as §1

For test [7], the system named is human breast cancer cell line T-47D. Briefly: Inhibition of cell proliferation (GI50), T47D. The note with it: T47D cells, 48 h, CellTiter-Glo. As to the method: as §2, §3, §4
The subject of test [8] is human B cell lymphoblastoid cell line Ramos. Briefly: Caspase cascade activation (EC50), Ramos. The note with it: Homo sapiens, RAMOS cells, read-out: caspase potency (EC50) RAMOS. A digest of the protocol: as §1
Test [9] has as its system human hepatocellular carcinoma cell line SNU398. Briefly: Caspase cascade activation (EC50), SNU398. The note with it: Homo sapiens, SNU-398; SNU398 cells; caspase cascade activation; read-out: caspase potency (EC50) SNU398. The essentials:
as §1

Test [10] deals with human B cell lymphoblastoid cell line Ramos. Briefly: Inhibition of cell proliferation (GI50), Ramos. The note with it: Homo sapiens; Ramos cells, 48 h, CellTiter-Glo. The essentials:
as §5

The subject of test [11] is human Burkitt's lymphoma cell line Namalwa. As to the kind of experiment: Inhibition of cell proliferation (GI50), Namalwa. The note with it: Homo sapiens, Burkitts lymphoma cell; Namalwa cells, 48 h, CellTiter-Glo. The essentials: as §5
Test [12] relates to human cancer cell line H1299. As to the kind of experiment: Caspase cascade activation (EC50), H1299. Particulars: NCI-H1299, H1299 cells, read-out: caspase potency (EC50) H1299. As to the method: Human breast cancer cell lines T-47D, human hepatocellular carcinoma cell line SNU398, human colon carcinoma cell line HCT116, human cancer cell line H1299, human Burkitt's lymphoma cell line Namalwa, human lymphoma cell line Raji, and human B cell lymphoblastoid cell line Ramos were grown according to media component mixtures designated by American Type Culture Collection+10% FCS (Invitrogen Corporation), in a 5% CO2-95% humidity incubator at 37° C. T-47D and H1299 cells were maintained at a cell density between 50 and 80% confluency at a cell density of 0.1 to 0.6×10^6 cells/mL. Cells were harvested at 600×g and resuspended at 0.65×10^6 cells/mL into appropriate media+10% FCS. An aliquot of 22.5 μL of cells was added to a well of a 384-well microtiter plate containing 2.5 μL of a 10% DMSO in RPMI-1640 media solution containing 0.16 to 100 μM of 3-(2-chlorophenyl)-6-(3,4-methylenedioxyphenyl)-7H-[1,2,4]triazolo[3,4-b][1,3,4]thiadiazine or other test compound (0.016 to 10 μM final). An aliquot of 22.5 μL of cells was added to a well of a 384-well microtiter plate containing 2.5 μL of a 10% DMSO in RPMI-1640 media solution without test compound as the control sample. The samples were mixed by agitation and then incubated at 37° C. for 48 h in a 5% CO2-95% humidity incubator. After incubation, the samples were removed from the incubator and 25 μL of a solution containing 14 μM of N—(Ac-DEVD)-N′-ethoxycarbonyl-R110 (SEQ ID No.:1) fluorogenic substrate (Cytovia, Inc.; WO99/18856), 20% sucrose (Sigma), 20 mM DTT (Sigma), 200 mM NaCl (Sigma), 40 mM Na PIPES buffer pH 7.2 (Sigma), and 500 μg/mL lysolecithin (Calbiochem) was added. The samples were mixed by agitation and incubated at room temperature. Using a fluorescent plate reader (Model SPECTRAfluor Plus, Tecan), an initial reading (T=0) was made approximately 1-2 min after addition of the substrate solution, employing excitation at 485 nm and emission at 530 nm, to determine the background fluorescence of the control sample. After the 3 h incubation, the samples were read for fluorescence as above (T=3 h). Calculation: The Relative Fluorescence Unit values (RFU) were used to calculate the sample readings as follows: RFU(T=3H)−Control RFU(T=0)=Net RFU(T=3h) The activity of caspase cascade activation was determined by the ratio of the net RFU value for 3-(2-chlorophenyl)-6-(3,4-methylenedioxyphenyl)-7H-[1,2,4]triazolo[3,4-b][1,3,4]thiadiazine (Example P) or other test compound to that of control samples. The EC50 (nM) was determined by a sigmoidal dose-response calculation (Prism 3.0, GraphPad Software Inc.).

The test system of test [13] is human lymphoma cell line Raji. Briefly: Inhibition of cell proliferation (GI50), Raji. The note with it: Homo sapiens; Raji cells, 48 h, CellTiter-Glo. The essentials: as §5
Test [14] deals with human leukemia cell line K562. Briefly: Inhibition of cell proliferation (GI50), K562. The note with it: Homo sapiens; K562 cells, 48 h, CellTiter-Glo. The essentials:
as §5

`COc1cc(-c2nnc3n2N=C(c2ccc(C)cc2)CS3)cc(OC)c1OC` [Example 17, 3-(3,4,5-Trimethoxyphenyl)-6-(4-methylphenyl)-7H-[1,2,4]triazolo[3,4-b][1,3,4]thiadiazine]: the EC50 (usually the concentration needed to bring the measured effect to its halfway point) in test [1] (Homo sapiens) was found to be 118 nM; in [2], 50 nM; in test [4], 29 nM; in test [6] it was 46 nM; in [8], 31 nM; in test [9], 24 nM. The results for the concentration for 50% growth inhibition (GI50) in test [3] (Homo sapiens), in test [5] (Homo sapiens) and in test [7] (Homo sapiens) were 25 nM, 21 nM and 15 nM, respectively.
`CCOc1cccc(-c2nnc3n2N=C(c2ccc4c(c2)OCO4)CS3)c1` [Example E1, 3-(3-Ethoxyphenyl)-6-(3,4-methylenedioxyphenyl)-7H-[1,2,4]triazolo[3,4-b][1,3,4]thiadiazine]: the concentration giving a half-maximal response (EC50) is 2120 nM in [1] (Homo sapiens); 5400 nM in test [2]; more than 10000 nM in [4]; more than 10000 nM in test [6]; 2590 nM in test [8]; more than 10000 nM in test [9]. For the same molecule, the GI50 (commonly the concentration that inhibits growth by half) in [3] (Homo sapiens) turned out to be 4600 nM; in test [5] (Homo sapiens) it was 5000 nM; in test [7] (Homo sapiens) it was 5000 nM.
Consider `COc1ccc(C2=Nn3c(nnc3-c3cccc(Cl)c3)SC2)cc1` [R, 3-(3-Chlorophenyl)-6-(4-methoxyphenyl)-7H-[1,2,4]triazolo[3,4-b][1,3,4]thiadiazine], for which the GI50 in test [10] is 17 nM; in test [11], 117 nM; in [13], 89 nM; in test [14], 42 nM; in [5] (Homo sapiens) it was 121 nM. Besides, the EC50 in test [12] was found to be 553 nM; in test [1] (Homo sapiens), 557 nM; in [2] it was 109 nM; in test [4], 122 nM; in [6] it was 242 nM; in test [8], 77 nM. Moreover, the EC50 in test [9] came to 115 nM.
For the molecule `CCOc1ccc(C2=Nn3c(nnc3-c3ccc(C)cc3)SC2)cc1` [B, 3-(4-Methylphenyl)-6-(4-ethoxyphenyl)-7H-[1,2,4]triazolo[3,4-b][1,3,4]thiadiazine], the GI50 in [10] is 108 nM; in test [11], 254 nM; in test [13] it was 133 nM; in test [14], 267 nM; in test [5] (Homo sapiens), 396 nM. In addition, the EC50 was 1250 nM in test [12]; 2710 nM in [1] (Homo sapiens); 455 nM in test [2]; 270 nM in test [4]; 431 nM in test [6]; 331 nM in [8]. Moreover, in [9], the EC50 is 266 nM.
In the case of `CCOc1ccc(C2=Nn3c(nnc3-c3ccccc3C)SC2)cc1` [L, 3-(2-Methylphenyl)-6-(4-ethoxyphenyl)-7H-[1,2,4]triazolo[3,4-b][1,3,4]thiadiazine], the GI50 was 17 nM in test [10]; 24 nM in test [11]; 62 nM in test [13]; 27 nM in test [14]; 141 nM in test [5] (Homo sapiens). In addition, the EC50 came out at 339 nM in test [12]; 1340 nM in [1] (Homo sapiens); 141 nM in [2]; 62 nM in test [4]; 126 nM in [6]; 93 nM in [8]. The EC50 in [9] amounted to 92 nM.
Take `COc1ccc(C2=Nn3c(nnc3-c3cccc(C)c3)SC2)cc1` [Example Q2]: the GI50 worked out at 33 nM in test [10]; 112 nM in test [11]; 587 nM in test [13]; 37 nM in [14]; 359 nM in test [5] (Homo sapiens). In addition, the EC50 in test [1] (Homo sapiens) was 503 nM; in [2], 121 nM; in [4], 80 nM; in test [6] it was 100 nM; in test [8] it was 65 nM; in [9] it was 61 nM.
As to “3-(3,5-Dimethoxyphenyl-4-(2-dimethylaminoethoxy)phenyl)-6-(4-methylphenyl)-7H-[1,2,4]triazolo[3,4-b][1,3,4]thiadiazine [Example 16]”, the EC50 in test [1] came to 609 nM. For the same molecule, the GI50 in test [3] is 2000 nM; in test [5] it was 1150 nM; in [7] it was 936 nM.
Regarding `CCOc1ccc(C2=Nn3c(nnc3-c3ccccc3Br)SC2)cc1` [Example A3], the GI50 in test [10] turned out to be 17 nM; in test [11], 79 nM; in [13], 103 nM; in test [14], 41 nM; in test [5] (Homo sapiens) it was 361 nM. In addition, the half-maximal effective concentration (EC50) worked out at 1080 nM in [1] (Homo sapiens); 268 nM in test [2]; 104 nM in [4]; 314 nM in test [6]; 125 nM in test [8]; 243 nM in test [9].
